In brackets after ≈: the same amount, converted by molar mass. Like-named read-outs stand apart in the source and are kept apart here. Starred links: 1 amine or outer side, 2 acyl side, 3 side chain; linkers in the order of their positions; H or OH if unused. Positions of bridges follow the written chain, without caps; N, C: chain ends. Non-standard residues stand in square brackets, D forms with d. Residues, ends and D or L forms follow the SMILES beside them. *: point of attachment. Decanoyl(3R-OH) = CCCCCCC[C@@H](O)CC(=O)*; azaLeu = CC(C)CN(N[*:1])C(=O)[*:2]; hPhe = N[C@@H](CCc1ccccc1)C(=O)O; Nonanoyl = CCCCCCCCC(=O)*; dDab = NCC[C@@H](N)C(=O)O; Octanoyl = CCCCCCCC(=O)*; dDap = NC[C@@H](N)C(=O)O; Dab = NCC[C@H](N)C(=O)O
Key:
[1] = system: bacterial strains; experiment: Potentiation/synergy antimicrobial assay (checkerboard, FICI) with antibiotics; format: cell-based; settings: GN_181 E. coli mcr-1
Description: Potentiation/synergy antimicrobial assays were conducted in the same manner as the standard MICs described above, with the following modifications. Assays were performed in 384-well non-binding surface plates (NBS; Corning 3460) and in Cation-adjusted Mueller Hinton Broth (CA-MHB; BD, Cat. No. 212322) with a final assay volume of 50 μL once bacteria was added at 5×10^5 CFU/mL. Antibiotics and octapeptin compounds were plated in duplicate as a 2-fold concentration series, in a matrix checkerboard format. The bacterial cell density of the resultant assay plates after 18-20 h incubation at 37° C. was read by optical density 600 nm (OD600) using a Tecan M1000 Pro Spectrophotometer, and analysed for ≥90% growth inhibition compared to the growth control to determine active concentrations. Synergistic effect was calculated based on the fractional inhibitory concentration index (FICI) by the following equation, where synergy is deemed FICI 0.5: […]

[2] = system: K. pneumoniae GN_102 PmxR; settings: GN 102 PmxR
Description: (§1) Bacteria were either obtained from American Type Culture Collection (ATCC; Manassas, Va., USA) or independent academic clinical isolate collections, as listed in Table 18 below. Bacteria were cultured in Nutrient broth (NB; Bacto Laboratories, catalogue No. 234000) or Mueller Hinton broth (MHB; Bacto Laboratories, catalogue No. 211443) at 37° C. overnight with shaking (˜180 RPM). A sample of each culture was then diluted 50-fold in fresh MHB and incubated at 37° C. for 2-3 h with shaking (˜180 RPM). Compound stock solutions were prepared as 0.64 mg/mL or 2.56 mg/mL in water. The compounds, at twice the final desired concentration, were serially diluted 2-fold across the wells of 96-well plates (Polystyrene, Corning, catalogue No. 3370). Mid-log phase bacterial cultures (after 2-3 h incubation) were diluted to a final concentration of 1×10^6 colony forming units (CFU)/mL, and 50 μL was added to each well giving a final cell density of 5×10^5 and a compound concentration range of 32 μg/mL to 0.015 μg/mL (128-0.06 μg/mL against P. aeruginosa PA9704).

[3] = system: P. aeruginosa GN_105, PmxR; settings: GN 105, PmxR
Description: as §1

[4] = system: K. pneumoniae GN_106, PmxR; settings: GN 106, PmxR
Description: as §1

[5] = system: A. baumannii GN_093 PmxR; settings: GN 093 PmxR
Description: as §1

[6] = system: K. pneumoniae ATCC 700603, MDR; settings: ATCC 700603
Description: as §1

[7] = system: E. coli ATCC 25922; settings: ATCC 25922
Description: as §1

[8] = system: P. aeruginosa ATCC 27853; settings: ATCC 27853
Description: as §1

[9] = system: K. pneumoniae ATCC 13883; settings: ATCC 13883
Description: as §1

[10] = system: S. aureus ATCC 25923, MSSA; settings: ATCC 25923
Description: as §1

[11] = system: A. baumannii ATCC 19606; settings: ATCC 19606
Description: as §1

[12] = system: K. pneumoniae ATCC BAA-2146, NDM-1 pos; settings: ATCC BAA-2146
Description: as §1

[13] = system: P. aeruginosa GN_043, PmxR
Description: as §1

Row | Structure (SMILES) | MIC K. pneumoniae ATCC 700603, MDR [6] [µg/mL] | MIC E. coli ATCC 25922 [7] [µg/mL] | MIC P. aeruginosa ATCC 27853 [8] [µg/mL] | MIC K. pneumoniae ATCC 13883 [9] [µg/mL] | MIC S. aureus ATCC 25923, MSSA [10] [µg/mL] | MIC A. baumannii ATCC 19606 [11] [µg/mL] | MIC K. pneumoniae ATCC BAA-2146, NDM-1 pos [12] [µg/mL] | MIC K. pneumoniae GN_102 PmxR [2] [µg/mL] | MIC P. aeruginosa GN_105, PmxR [3] [µg/mL] | MIC K. pneumoniae GN_106, PmxR [4] [µg/mL] | MIC A. baumannii GN_093 PmxR [5] [µg/mL] | MIC P. aeruginosa GN_043, PmxR ([13]; polymyxin-resistant) [µg/mL] | MIC P. aeruginosa GN_043, PmxR ([13]; P. aeruginosa GN_043, PmxR) [µg/mL] | other results
1 | CC(=O)NC[C@H]1CN(c2ccc(N3CCOCC3)c(F)c2)C(=O)O1 [Linezolid, linezolid] |  |  |  |  |  |  |  |  |  |  |  |  |  | MIC of antibiotic with OctC4 at concn 0 ([1]; OctC4 0 μg/mL): >32 µg/mL; MIC of antibiotic with OctC4 at concn 0.03 ([1]; OctC4 0.03 μg/mL): 8 µg/mL; MIC of antibiotic with OctC4 at concn 0.0625 ([1]; OctC4 0.0625 μg/mL): 4 µg/mL; MIC of antibiotic with OctC4 at concn 0.125 ([1]; OctC4 0.125 μg/mL): 4 µg/mL; MIC of antibiotic with OctC4 at concn 0.25 ([1]; OctC4 0.25 μg/mL): 0.25 µg/mL
2 | CCCCCCC[C@@H](O)CC(=O)N[C@H](CCN)C(=O)N[C@H]1CCNC(=O)[C@H](CC(C)C)NC(=O)[C@H](CCN)NC(=O)[C@H](CCN)NC(=O)N(CC(C)C)NC(=O)[C@@H](Cc2ccccc2)NC(=O)[C@H](CCN)NC1=O [compound 8803, 3(R)OH-nC9CO-D-Dab-cyc[L-Dab-L-DAB-D-Phe-azaLeu-L-Dab-L-Dab-L-Leu]] ({Decanoyl(3R-OH)}-[dDab][Dab][Dab][dF][azaLeu][Dab][Dab]L; lactam 2-C) | 8 (≈ 7.65 µM) | 2 (≈ 1.91 µM) | 4 (≈ 3.83 µM) | 8 (≈ 7.65 µM) | 16 (≈ 15.3 µM) | 8 (≈ 7.65 µM) | 8 (≈ 7.65 µM) |  |  |  |  |  |  | MIC K. pneumoniae Cl Koprana 10065 0661:1 PmxR [2]: 2 µg/mL (≈ 1.91 µM); MIC P. aeruginosa PA9704, PmxR [3]: 2 µg/mL (≈ 1.91 µM); MIC K. pneumoniae Cl 183-16357-20352, PmxR [4]: 4 µg/mL (≈ 3.83 µM); MIC A. baumannii Cl Ptyela 10073 4512:2, PmxR [5]: 32 µg/mL (≈ 30.6 µM); MIC, P. aeruginosa FADDI-PA070, PmxR ([13]; strain name as in Table 11): 1 µg/mL (≈ 0.957 µM)
3 | CCCCCCC[C@@H](O)CC(=O)N[C@H](CCN)C(=O)N[C@H]1CCNC(=O)[C@H](Cc2c[nH]c3ccccc23)NC(=O)[C@H](CCN)NC(=O)[C@H](CCN)NC(=O)[C@H](CCc2ccccc2)NC(=O)[C@@H](Cc2ccccc2)NC(=O)[C@H](CCN)NC1=O [compound 8834, nC10-3(R)OH-D-Dab-cyc[L-Dab-L-Dab-D-Phe-L-hPhe-L-Dab-L-Dab-L-Trp]] ({Decanoyl(3R-OH)}-[dDab][Dab][Dab][dF][hPhe][Dab][Dab]W; lactam 2-C) | 8 (≈ 6.86 µM) | 8 (≈ 6.86 µM) | 4 (≈ 3.43 µM) | 4 (≈ 3.43 µM) | 4 (≈ 3.43 µM) | 8 (≈ 6.86 µM) | 8 (≈ 6.86 µM) | 4 (≈ 3.43 µM) | 32 (≈ 27.5 µM) | 8 (≈ 6.86 µM) | 8 (≈ 6.86 µM) | 4 (≈ 3.43 µM) |  | 
4 | CCCCCCC[C@@H](O)CC(=O)N[C@H](CN)C(=O)N[C@H]1CCNC(=O)[C@H](CC(C)C)NC(=O)[C@H](CCN)NC(=O)[C@H](CCN)NC(=O)[C@H](CC(C)C)NC(=O)[C@@H](CC(C)C)NC(=O)[C@H](CCN)NC1=O [compound 8977, nC10-3(R)OH-D-Dap-(L-Dab-L-Dab-D-Leu-L-Leu-L-Dab-L-Dab-L-Leu)] ({Decanoyl(3R-OH)}-[dDap][Dab][Dab][dL]L[Dab][Dab]L; lactam 2-C) | 4 (≈ 4.01 µM) | 4 (≈ 4.01 µM) | 4 (≈ 4.01 µM) | 8 (≈ 8.03 µM) | 32 (≈ 32.1 µM) | 8 (≈ 8.03 µM) | 8 (≈ 8.03 µM) | 2 (≈ 2.01 µM) | 2 (≈ 2.01 µM) | 4 (≈ 4.01 µM) | 2 (≈ 2.01 µM) |  | 2 (≈ 2.01 µM) | 
5 | CCCCCCCC(=O)N[C@H](CN)C(=O)N[C@H]1CCNC(=O)[C@H](CC(C)C)NC(=O)[C@H](CCN)NC(=O)[C@H](CCN)NC(=O)[C@H](CC(C)C)NC(=O)[C@@H](CC(C)C)NC(=O)[C@H](CCN)NC1=O [compound 8978, nC7CO-D-Dap-cyc[L-Dab-L-Dab-D-Leu-L-Leu-L-Dab-L-Dab-L-Leu]] (Octanoyl-[dDap][Dab][Dab][dL]L[Dab][Dab]L; lactam 2-C) | 16 (≈ 16.8 µM) | 4 (≈ 4.2 µM) | 2 (≈ 2.1 µM) | 16 (≈ 16.8 µM) | >32 | 32 (≈ 33.6 µM) | 16 (≈ 16.8 µM) | 32 (≈ 33.6 µM) | 2 (≈ 2.1 µM) | 32 (≈ 33.6 µM) | 8 (≈ 8.4 µM) |  | 4 (≈ 4.2 µM) | 
6 | CCCCCCCCC(=O)N[C@@H](CCN)C(=O)N[C@H](C(=O)N[C@@H](CCN)C(=O)N[C@H]1CCNC(=O)[C@H](Cc2c[nH]c3ccccc23)NC(=O)[C@H](CCN)NC(=O)[C@H](CCN)NC(=O)[C@H](CC(C)C)NC(=O)[C@@H](Cc2ccccc2)NC(=O)[C@H](CCN)NC1=O)[C@@H](C)O [compound 9032, nC8CO-L-Dab-L-Thr-L-Dab-cyc[L-Dab-L-Dab-D-Phe-L-Leu-L-Dab-L-Dab-L-Trp]] (Nonanoyl-[Dab]T[Dab][Dab][Dab][dF]L[Dab][Dab]W; lactam 4-C) | 8 (≈ 6.21 µM) | 4 (≈ 3.1 µM) | 2 (≈ 1.55 µM) | 8 (≈ 6.21 µM) | 16 (≈ 12.4 µM) | 8 (≈ 6.21 µM) | 8 (≈ 6.21 µM) | 4 (≈ 3.1 µM) | 2 (≈ 1.55 µM) | 4 (≈ 3.1 µM) | 8 (≈ 6.21 µM) | 1 (≈ 0.776 µM) |  | 

From patent US11279733B2, “Peptide antibiotics” (priority 2017, dated 2022)
